Data as given in PubChem BioAssay (NCI).
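Assay format: 96-well plates, 48-hour exposure. TGI marks complete inhibition of growth.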

Legend:
Assay in all cases: inhibition of tumour cell growth, NCI panel, 48 h
SNB-75 CNS = tested on: SNB-75 CNS
KM12 colon = tested on: KM12 colon
RPMI-8226 leukemia = tested on: RPMI-8226 leukemia
HOP-62 NSCLC = tested on: HOP-62 NSCLC
786-0 renal = tested on: 786-0 renal
LXFL 529 NSCLC = tested on: LXFL 529 NSCLC
RXF-631 renal = tested on: RXF-631 renal
A498 renal = tested on: A498 renal
SF-295 CNS = tested on: SF-295 CNS
U251 CNS = tested on: U251 CNS
SNB-78 CNS = tested on: SNB-78 CNS
SK-MEL-28 melanoma = tested on: SK-MEL-28 melanoma
TK-10 renal = tested on: TK-10 renal
COLO 205 colon = tested on: COLO 205 colon
M19-MEL melanoma = tested on: M19-MEL melanoma
SR leukemia = tested on: SR leukemia
DMS 273 small cell lung = tested on: DMS 273 small cell lung
XF 498 CNS = tested on: XF 498 CNS
HCT-116 colon = tested on: HCT-116 colon
IGROV1 ovarian = tested on: IGROV1 ovarian
HOP-18 NSCLC = tested on: HOP-18 NSCLC
SF-539 CNS = tested on: SF-539 CNS
OVCAR-3 ovarian = tested on: OVCAR-3 ovarian
UACC-257 melanoma = tested on: UACC-257 melanoma
OVCAR-8 ovarian = tested on: OVCAR-8 ovarian
NCI-H23 lung = tested on: NCI-H23 lung
NCI-H226 lung = tested on: NCI-H226 lung
EKVX NSCLC = tested on: EKVX NSCLC
CCRF-CEM leukemia = tested on: CCRF-CEM leukemia
OVCAR-4 ovarian = tested on: OVCAR-4 ovarian
HL-60(TB) leukemia = tested on: HL-60(TB) leukemia
HT29 colon = tested on: HT29 colon
DMS 114 small cell lung = tested on: DMS 114 small cell lung
SW-620 colon = tested on: SW-620 colon
ACHN renal = tested on: ACHN renal
HOP-92 NSCLC = tested on: HOP-92 NSCLC
HCC-2998 colon = tested on: HCC-2998 colon
HCT-15 colon = tested on: HCT-15 colon
SK-MEL-5 melanoma = tested on: SK-MEL-5 melanoma
RXF 393 renal = tested on: RXF 393 renal
NCI-H460 lung = tested on: NCI-H460 lung
SN12C renal = tested on: SN12C renal
MOLT-4 leukemia = tested on: MOLT-4 leukemia
LOX IMVI melanoma = tested on: LOX IMVI melanoma
MALME-3M melanoma = tested on: MALME-3M melanoma
NCI-H522 lung = tested on: NCI-H522 lung
A549 NSCLC = tested on: A549 NSCLC
SF-268 CNS = tested on: SF-268 CNS
UACC-62 melanoma = tested on: UACC-62 melanoma
OVCAR-5 ovarian = tested on: OVCAR-5 ovarian
UO-31 renal = tested on: UO-31 renal
K-562 leukemia = tested on: K-562 leukemia
SK-MEL-2 melanoma = tested on: SK-MEL-2 melanoma
M14 melanoma = tested on: M14 melanoma
DLD-1 colon = tested on: DLD-1 colon
SK-OV-3 ovarian = tested on: SK-OV-3 ovarian
KM20L2 colon = tested on: KM20L2 colon
SNB-19 CNS = tested on: SNB-19 CNS
CAKI-1 renal = tested on: CAKI-1 renal

Measured: TGI

CCOC(=O)Cn1c(=O)[nH]c(=O)c2c1ncn2Cc1ccccc1
> 100 µM: all assays above

C=C1CCC(OC(C)=O)C2(C)C(OC(C)=O)CC3OC3(C)C2C(OC(C)=O)C2C(C)C(=O)OC2C1Cl (stereo not given)
not listed: NCI-H522 lung
> 100 µM: all other assays above

CCOCc1cc(=O)c2cc3c(cc2o1)OC(C)(C)CC3
not listed: SK-MEL-28 melanoma
> 100 µM: all other assays above
